In ChEMBL document CHEMBL5036304, “One Atom Makes All the Difference: Getting a Foot in the Door between SOS1 and KRAS” (J Med Chem, 2021):
The source made the active and inactive calls. No cut-off for these calls is given here.

How the values were obtained:
[1] = molecular target: T1, Son of sevenless homolog 1 (Homo sapiens, UniProt Q07889); experiment: Binding affinity to SOS1 (unknown origin) assessed as dissociation constant by SPR analysis
T1 sequence (Q07889 whole entry): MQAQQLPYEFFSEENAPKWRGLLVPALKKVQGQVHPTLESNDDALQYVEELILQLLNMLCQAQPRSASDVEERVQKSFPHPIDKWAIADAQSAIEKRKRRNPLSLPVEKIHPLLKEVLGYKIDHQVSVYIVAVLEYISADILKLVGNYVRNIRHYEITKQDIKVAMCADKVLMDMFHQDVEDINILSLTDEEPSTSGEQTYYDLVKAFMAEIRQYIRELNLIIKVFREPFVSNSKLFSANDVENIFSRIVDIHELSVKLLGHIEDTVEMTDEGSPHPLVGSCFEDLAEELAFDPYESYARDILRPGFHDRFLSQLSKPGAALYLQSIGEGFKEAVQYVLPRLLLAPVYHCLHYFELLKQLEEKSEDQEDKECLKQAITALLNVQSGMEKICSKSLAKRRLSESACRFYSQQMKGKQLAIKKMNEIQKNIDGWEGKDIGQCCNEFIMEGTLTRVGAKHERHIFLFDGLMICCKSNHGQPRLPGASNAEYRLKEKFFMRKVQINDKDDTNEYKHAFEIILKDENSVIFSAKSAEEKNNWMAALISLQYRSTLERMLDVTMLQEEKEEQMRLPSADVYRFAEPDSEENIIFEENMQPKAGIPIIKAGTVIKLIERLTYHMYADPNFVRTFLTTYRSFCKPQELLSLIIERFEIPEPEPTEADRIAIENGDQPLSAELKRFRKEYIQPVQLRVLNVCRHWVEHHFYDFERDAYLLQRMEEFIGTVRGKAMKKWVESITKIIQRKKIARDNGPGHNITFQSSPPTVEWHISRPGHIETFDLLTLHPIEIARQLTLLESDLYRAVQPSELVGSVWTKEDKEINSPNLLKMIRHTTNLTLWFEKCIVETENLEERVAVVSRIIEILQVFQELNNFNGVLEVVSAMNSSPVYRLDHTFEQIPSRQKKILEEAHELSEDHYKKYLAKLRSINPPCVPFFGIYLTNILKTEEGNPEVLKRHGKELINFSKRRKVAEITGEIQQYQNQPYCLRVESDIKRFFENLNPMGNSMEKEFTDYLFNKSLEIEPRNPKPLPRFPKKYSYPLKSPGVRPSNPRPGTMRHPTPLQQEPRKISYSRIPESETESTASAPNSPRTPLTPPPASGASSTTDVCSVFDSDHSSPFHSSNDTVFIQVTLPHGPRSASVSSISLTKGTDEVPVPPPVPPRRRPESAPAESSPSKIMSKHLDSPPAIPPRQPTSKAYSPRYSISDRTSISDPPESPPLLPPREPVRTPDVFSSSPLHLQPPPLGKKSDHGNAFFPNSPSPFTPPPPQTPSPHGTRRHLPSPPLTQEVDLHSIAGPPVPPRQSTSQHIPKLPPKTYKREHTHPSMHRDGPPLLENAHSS

[2] = molecular target: T2, SOS1-KRAS (Homo sapiens, UniProt Q07889); experiment: Inhibition of SOS1/KRAS G12D mutant (unknown origin) protein-protein interaction using GDP nucleotide as substrate measured after 30 mins by Alphascreen assay
[3] = molecular target: Epidermal growth factor receptor (Homo sapiens, UniProt P00533); experiment: Inhibition of EGFR (unknown origin)
[4] = Efflux ratio of apparent permeability from basolateral to apical side over apical to basolateral side in human Caco-2 cells at 10 uM
[5] = Oral bioavailability in rat; assay type: ADME, organism-based; details: in vivo
[6] = Metabolic stability in human hepatocytes in presence of 50% serum; assay type: ADME, cell-based, Hepatocyte
[7] = test system: DLD-1; experiment: Induction of apoptosis in human DLD-1 cells harboring KRAS G13D mutant assessed as cleaved-PRAP measured after 24 to 48 hrs; assay type: functional, cell-based; details: time 24-48 hrs
[8] = Oral bioavailability in mouse; assay type: ADME, organism-based; details: in vivo
[9] = Metabolic stability in mouse hepatocytes in presence of 50% serum; assay type: ADME, cell-based, Hepatocyte
[10] = Anticancer activity against human DLD-1 cells xenografted rat model assessed as tumor growth inhibition at 50 mg/kg measured; assay type: functional; details: read-out: TGI
[11] = Metabolic stability in rat hepatocytes in presence of 50% serum; assay type: ADME, cell-based, Hepatocyte
[12] = test system: DLD-1; experiment: Induction of apoptosis in human DLD-1 cells harboring KRAS G13D mutant assessed as cleaved-PRAP at 100 nM measured after 24 to 48 hrs; assay type: functional, cell-based; details: time 24-48 hrs
[13] = molecular target: T2, SOS1-KRAS; experiment: Activation of SOS1/KRAS G12D mutant (unknown origin) protein-protein interaction using GDP nucleotide as substrate measured after 30 mins by Alphascreen assay
[14] = test system: DLD-1; experiment: Induction of apoptosis in human DLD-1 cells harboring KRAS G13D mutant assessed as cleaved-PRAP at 0.1 nM measured after 24 to 48 hrs; assay type: functional, cell-based; details: time 24-48 hrs

Epidermal growth factor receptor, sequence (P00533 whole entry): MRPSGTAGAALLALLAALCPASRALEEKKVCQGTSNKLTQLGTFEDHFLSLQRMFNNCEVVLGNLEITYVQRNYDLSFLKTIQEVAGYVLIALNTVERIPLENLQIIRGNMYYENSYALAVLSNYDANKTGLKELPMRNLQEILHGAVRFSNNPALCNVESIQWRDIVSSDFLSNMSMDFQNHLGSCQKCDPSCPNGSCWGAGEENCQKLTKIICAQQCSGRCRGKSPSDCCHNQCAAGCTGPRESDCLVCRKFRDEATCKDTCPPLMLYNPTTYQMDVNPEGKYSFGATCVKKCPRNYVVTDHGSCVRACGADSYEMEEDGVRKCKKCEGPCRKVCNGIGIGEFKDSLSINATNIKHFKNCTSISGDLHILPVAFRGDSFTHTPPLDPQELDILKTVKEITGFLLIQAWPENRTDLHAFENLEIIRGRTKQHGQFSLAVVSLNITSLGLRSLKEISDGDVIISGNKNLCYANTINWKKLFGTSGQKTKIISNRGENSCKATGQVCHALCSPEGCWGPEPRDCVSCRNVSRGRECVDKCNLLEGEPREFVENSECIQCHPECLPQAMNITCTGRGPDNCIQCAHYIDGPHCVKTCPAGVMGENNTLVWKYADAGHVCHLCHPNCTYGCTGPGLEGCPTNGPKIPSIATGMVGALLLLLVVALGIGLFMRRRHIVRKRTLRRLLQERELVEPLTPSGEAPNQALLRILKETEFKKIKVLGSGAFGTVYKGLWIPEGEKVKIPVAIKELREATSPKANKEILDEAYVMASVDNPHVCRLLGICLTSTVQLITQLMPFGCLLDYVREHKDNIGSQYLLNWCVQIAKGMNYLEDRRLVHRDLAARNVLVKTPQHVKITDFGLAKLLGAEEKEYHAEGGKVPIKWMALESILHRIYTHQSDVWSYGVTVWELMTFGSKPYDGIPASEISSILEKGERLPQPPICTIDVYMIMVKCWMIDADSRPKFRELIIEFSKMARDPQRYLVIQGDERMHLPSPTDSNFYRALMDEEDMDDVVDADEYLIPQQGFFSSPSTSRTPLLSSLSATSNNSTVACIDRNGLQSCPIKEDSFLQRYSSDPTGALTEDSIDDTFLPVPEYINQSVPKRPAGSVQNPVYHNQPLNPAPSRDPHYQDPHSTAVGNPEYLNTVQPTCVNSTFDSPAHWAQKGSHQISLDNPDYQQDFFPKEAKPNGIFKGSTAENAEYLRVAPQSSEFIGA

| SMILES | Kd [1] [nM] | IC50 [2] [nM] | efflux ratio at 10 µM [4] | further results |
| --- | --- | --- | --- | --- |
| COc1cc2ncnc(N[C@H](C)c3ccccc3)c2cc1OC | 301 | 1050 |  | IC50 [3]: 1 nM |
| COc1cc2nc(C)nc(N[C@H](C)c3cccc(C(F)(F)F)c3)c2cc1OC | 104 | 106 | 0.3 | IC50 [3]: > 20000 nM |
| COc1cc2nc(C)nc(N[C@H](C)c3cccc(S(N)(=O)=O)c3)c2cc1OC | 16 | 56 | 50 | IC50 [3]: > 20000 nM |
| COc1cc2nc(C)nc(N[C@H](C)c3cc(N)cc(C(F)(F)F)c3)c2cc1O[C@H]1CCOC1 |  |  |  | bioavailability [5]: 100%; Stability [6]: 14%; Activity [7]: Active; bioavailability [8]: 100%; Stability [9]: 45%; inhibition in vivo at 50 mg/kg [10]: 37%; Stability [11]: 28% |
| COc1cc2nc(C)nc(N[C@H](C)c3ccccc3)c2cc1OC | 469 | 453 | 0.6 | IC50 [3]: 2800 nM |
| COc1cc2nc(C)nc(N[C@H](C)c3cc(N)cc(C(F)(F)F)c3)c2cc1OC | 16 | 15 | 0.7 |  |
| Cc1nc(N[C@H](C)c2cc(N)cc(C(F)(F)F)c2)c2cc(Cl)ccc2n1 | 1490 | 3830 |  |  |
| CN(C)C/C=C/C(=O)Nc1cc2c(Nc3ccc(F)c(Cl)c3)ncnc2cc1O[C@H]1CCOC1 [AFATINIB] |  |  |  | Activity [12]: Active; inhibition in vivo at 50 mg/kg [10]: 7% |
| COc1ccc2nc(C)nc(N[C@H](C)c3cc(N)cc(C(F)(F)F)c3)c2c1 | 24 | 33 |  |  |
| N[C@@H](Cc1c[nH]c2ccccc12)C(=O)NC1CCN(Cc2c[nH]c3ccccc23)CC1 | 19300 |  |  | EC50 [13]: 11100 nM |
| CC(=O)Nc1cccc(-n2c(=O)n(C3CC3)c(=O)c3c(Nc4ccc(I)cc4F)n(C)c(=O)c(C)c32)c1 |  |  |  | Activity [14]: Active |
| COc1cc2nc(C)nc(N[C@H](C)c3cccc(N)c3)c2cc1OC | 123 | 355 | 1.3 |  |
| CC(C)c1noc2ncc(C(=O)NC(C)c3cccc(S(N)(=O)=O)c3)cc12 (stereo unspecified) | 937 | 1190 |  |  |
| Cc1nc(N[C@H](C)c2cc(N)cc(C(F)(F)F)c2)c2cc(F)ccc2n1 | 751 |  |  | EC50 [13]: 939 nM |
